The values that follow come from patent US20250377365A1, “METHODS INVOLVING DETECTING TNF STIMULATED GENE 6 (TSG-6) FOR IMPROVING ANTI-TUMOR RESPONSES TO IMMUNE THERAPY IN CANCER PATIENTS” (BOARD OF REGENTS, THE UNIVERSITY OF TEXAS SYSTEM, priority 2022, published 2025).

The test has as its system bone marrow-derived macrophages (BMDM). As to the kind of experiment: In vitro macrophage polarization assay (RT-qPCR gene expression). In kind it is cell-based, mice. Particulars: 0.5 mg/mL recombinant TSG6, 2 days, qPCR vs GAPDH, FIG. 3C. The text has this:
To determine if fibroblast secreted TSG-6 regulates the presence the distinct myeloid subsets between melanoma and pancreatic TME, the inventors performed receptor-ligand studies between the myeloid subsets and fibroblasts. First, the inventors analyzed the relative expression of TSG-6 and its binding partner CD44 in the fibroblasts and macrophage/neutrophil subsets. While TSG-6 was expressed slightly higher in the mT4 tumors as compared to B16F10 tumors, its ligand CD44 was primarily expressed in the macrophage/neutrophil subsets only in the mT4 tumors (FIG. 3A). To determine if this observation correlates with higher interactions between TSG-6 and suppressive myeloid subsets in the mT4 tumors, the inventors performed receptor-ligand interaction studies using CellChat analysis (PMID: 33597522). The analysis indicated strong communication probabilities of fibroblast expressed TSG-6 and myeloid CD44 interaction only in the mT4 tumors and not B16F10 tumors (FIG. 3B). To further evaluate whether TSG-6 regulates the immunosuppressive macrophage phenotype, the inventors performed an in vitro macrophage polarization assay. The inventors stimulated bone marrow-derived macrophages (BMDM) with either LPS or recombinant TSG-6 (rTSG-6) and observed that rTSG-6 increased the expression of Arg1, Mafb, Mrc1, and Vista in the macrophages and suppressed Ifng expression (FIG. 3C). Thus, the above data indicates TSG-6 interacts with suppressive intratumoral myeloid subsets and might have a role to play in resistance to ICT.
TSG-6 stimulated bone marrow derived macrophages (BMDM) and RT-qPCR Gene Expression: BMDM were isolated from the femurs of wild type C57/BL6 mice in ice cold complete RPMI 1640 media. Both epiphyses were removed before the bones were placed in sterile microfuge tubes and centrifuged at 500×g for 5 minutes at 4° C. to extrude the bone marrow. The collected bone marrow was homogenized by pipetting followed by RBC lysis. The single cell suspension of bone marrow cells obtained, was counted in an automated Vicell cell counter before 2.0e6 cells/well were cultured in Iscove's Modified Dulbecco's Medium (IMDM) supplemented with 10% FBS and 10 ng/ml Macrophage colony-stimulating factor (M-CSF) (Biolegend, Cat #576404)) in a 12 well plate. On Day 3, cells were resuspended in fresh growth media and on Day 7, cells were subjected to fresh complete IMDM containing 100 ng/ml LPS (InvivoGen, Cat #tlrl-eblps) and 0.5 mg/mL recombinant TSG6 (R&D Systems, Cat #2326-TS-050) and left in culture for 2 days. Supernatants were removed and adhered macrophages were subjected to Accutase cell detachment solution following manufacturers protocol (Innovative Cell Technologies, 07920). Macrophages were resuspended and centrifuged at 350×g for 8 minutes. Cell pellets were lysed with 350 uL buffer RLT lysis buffer (Qiagen, 74104) supplemented with B-ME and subjected to RNA extraction using RNA mini extraction kit (Qiagen, 74104). cDNA was synthesized using the NEB LunaScript RT SuperMix Kit (E3010L) and 30 ng of total cDNA was used for each 20 uL qPCR reaction. Taqman gene expression Real-Time PCR assays were run using manufacturers protocol and gene targets were compared to GAPDH housekeeping expression (GAPDH, Mm05724508_g1; IFNg, Mm01168134_m1; Mrc1, Mm01329359_m1; Arg1, Mm00475988_m1; Mafb, Mm00627481_s1, VISTA, Mm00472312_m1).

“rTSG-6: recombinant TSG6 protein, R&D Systems, Cat #2326-TS-050”: the Ifng expression entry was “suppressed”, the “expression of Arg1” value was “increased”, the “expression of Mafb” value is “increased” and the “expression of Mrc1” value is “increased”. The “expression of Vista” value was “increased”.
